Among the data in patent US6372785B1, “Synthesis of 1,8-dichloro-anthracene analogues and pharmaceutical compositions based thereon” (Keith Chan, President GloboAsia, LLC, priority 2000, dated 2002) are melting point values, retold here.

`O=C(CCCBr)Oc1c2c(Cl)cccc2cc2cccc(Cl)c12` [Compound 3I, 1,8-Dichloro-9-(4-bromobutyroxy)anthracene] displayed a melting point of 155 to 157 °C.

Consider `O=C(Oc1c2c(Cl)cccc2cc2cccc(Cl)c12)c1ccccc1` [Compound 3L, 1,8-Dichloro-9-benzoyloxyanthracene], for which the melting point lay within 183 to 185 °C.

As to `CC(=O)Oc1c2c(Cl)cccc2cc2cccc(Cl)c12` [Compound 3a, 1,8-Dichloro-9-acetoxyanthracene], the melting point lay within 130 to 131 °C.

Take `O=C(CBr)Oc1c2c(Cl)cccc2cc2cccc(Cl)c12` [Compound 3b, 1,8-Dichloro-9-bromoacetoxyanthracene]: the melting point was 192 to 193 °C.

`O=C(CCl)Oc1c2c(Cl)cccc2cc2cccc(Cl)c12` [Compound 3c, 1,8-Dichloro-9-chloroacetoxyanthracene] showed a melting point of 178 to 180 °C.

Compound `CCC(=O)Oc1c2c(Cl)cccc2cc2cccc(Cl)c12` [Compound 3d, 1,8-Dichloro-9-propionoxyanthracene] gave a melting point of 150 to 152 °C.

`CC(C)C(=O)Oc1c2c(Cl)cccc2cc2cccc(Cl)c12` [Compound 3e, 1,8-Dichloro-9-isobutyroxyanthracene]: the melting point was 184 to 186 °C.

In turn, `CCCC(=O)Oc1c2c(Cl)cccc2cc2cccc(Cl)c12` [Compound 3h, 1,8-Dichloro-9-butyroxyanthracene] displayed a melting point of 152 to 154 °C.

Turning to `CCCCCC(=O)Oc1c2c(Cl)cccc2cc2cccc(Cl)c12` [Compound 3k, 1,8-Dichloro-9-hexanoyloxyanthracene], the melting point was in the range of 136 to 138 °C.

Consider `Cc1ccccc1C(=O)Oc1c2c(Cl)cccc2cc2cccc(Cl)c12` [Compound 3m, 1,8-Dichloro-9-(o-toluoyloxy)anthracene], for which the melting point was 168 to 170 °C.

The compound `Cc1cccc(C(=O)Oc2c3c(Cl)cccc3cc3cccc(Cl)c23)c1` [Compound 3n, 1,8-Dichloro-9-(m-toluoyloxy)anthracene] returned a melting point of 196 to 198 °C.

The compound `Cc1ccc(C(=O)Oc2c3c(Cl)cccc3cc3cccc(Cl)c23)cc1` [Compound 3o, 1,8-Dichloro-9-(p-toluoyloxy)anthracene] had a melting point of 220 to 222 °C.

The melting point is the temperature, or range, at which the solid turns liquid.
